Assay results: the supplement of paper PMC10307832

Legend:
Experiment in all cases: relative viability (nuclei count vs DMSO), 5 days (fraction); higher = more cells survive
Zebularine + Trametinib = compound: O=c1ncccn1[C@@H]1O[C@H](CO)[C@@H](O)[C@H]1O [Zebularine] + CC(=O)Nc1cccc(-n2c(=O)n(C3CC3)c(=O)c3c(Nc4ccc(I)cc4F)n(C)c(=O)c(C)c32)c1 [Trametinib] (partner 0.02 µM)
How it was run: (§1)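 Lung cancer cell lines, seeded in 1536-well plates, were treated the following day by pin tool with a single drug or with five library-drug doses (not always all listed) in √10 steps on top of a fixed anchor-drug dose. Cells were fixed and nuclei stained in one step after 5 days, and nuclei were counted. Relative viability is the nuclei count for treated wells divided by that for vehicle wells, reported as medians of duplicate plates.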

Zebularine + Foretinib = compound: O=c1ncccn1[C@@H]1O[C@H](CO)[C@@H](O)[C@H]1O [Zebularine] + COc1cc2c(Oc3ccc(NC(=O)C4(C(=O)Nc5ccc(F)cc5)CC4)cc3F)ccnc2cc1OCCCN1CCOCC1 [Foretinib] (partner 0.25 µM)
How it was run: as §1

Zebularine + Pictilisib = compound: O=c1ncccn1[C@@H]1O[C@H](CO)[C@@H](O)[C@H]1O [Zebularine] + CS(=O)(=O)N1CCN(Cc2cc3nc(-c4cccc5[nH]ncc45)nc(N4CCOCC4)c3s2)CC1 [Pictilisib] (partner 1 µM)
How it was run: as §1

BI-D1870 + Dasatinib = compound: CC(C)CCN1c2nc(Nc3cc(F)c(O)c(F)c3)ncc2N(C)C(=O)C1C [BI-D1870] + Cc1nc(Nc2ncc(C(=O)Nc3c(C)cccc3Cl)s2)cc(N2CCN(CCO)CC2)n1 [Dasatinib] (partner 0.075 µM)
How it was run: as §1

Row | Cell Line | relative viability (Zebularine + Trametinib; first compound 1 µM) | relative viability (Zebularine + Trametinib; first compound 3.162 µM) | relative viability (Zebularine + Trametinib; first compound 10 µM) | relative viability (Zebularine + Trametinib; first compound 31.62 µM) | relative viability (Zebularine + Trametinib; first compound 100 µM) | relative viability (Zebularine + Foretinib; first compound 1 µM) | relative viability (Zebularine + Foretinib; first compound 3.162 µM) | relative viability (Zebularine + Foretinib; first compound 10 µM) | relative viability (Zebularine + Foretinib; first compound 31.62 µM) | relative viability (Zebularine + Foretinib; first compound 100 µM) | relative viability (Zebularine + Pictilisib; first compound 1 µM) | relative viability (Zebularine + Pictilisib; first compound 3.162 µM) | relative viability (Zebularine + Pictilisib; first compound 10 µM) | relative viability (Zebularine + Pictilisib; first compound 31.62 µM) | relative viability (Zebularine + Pictilisib; first compound 100 µM) | relative viability (BI-D1870 + Dasatinib; first compound 0.04 µM) | relative viability (BI-D1870 + Dasatinib; first compound 0.1265 µM) | relative viability (BI-D1870 + Dasatinib; first compound 0.4 µM) | relative viability (BI-D1870 + Dasatinib; first compound 1.265 µM) | relative viability (BI-D1870 + Dasatinib; first compound 4 µM)
1 | NCI-H322M | 0.489 | 0.515 | 0.481 | 0.551 | 0.509 | 0.914 | 0.945 | 0.645 | 0.773 | 0.647 | 0.496 | 0.504 | 0.439 | 0.538 | 0.465 | 0.236 | 0.27 | 0.234 | 0.234 | 0.283
2 | NCI-H2228 | 0.612 | 0.251 | – | 0.417 | 0.252 | 0.902 | 0.898 | 0.507 | 0.914 | 0.281 | 0.563 | 0.416 | 0.228 | 0.329 | 0.251 | 0.543 | 0.403 | 0.553 | 0.544 | 0.337
3 | NCI-H647 | 0.53 | 0.508 | 0.184 | 0.116 | 0.112 | 1.03 | 0.979 | 0.333 | 0.198 | 0.167 | 0.596 | 0.381 | 0.222 | 0.182 | 0.114 | 0.184 | 0.113 | 0.243 | 0.23 | 0.208
4 | SK-MES-1 | 0.558 | 0.581 | 0.491 | 0.503 | 0.305 | 1.12 | 0.828 | 0.794 | 0.742 | 0.337 | 0.375 | 0.399 | 0.294 | 0.346 | 0.203 | 0.44 | 0.369 | 0.323 | 0.362 | 0.3
5 | NCI-H2170 | 0.931 | 0.919 | 0.677 | 0.874 | 0.441 | 0.983 | 1.02 | 0.909 | 0.98 | 0.611 | 0.385 | 0.31 | 0.348 | 0.322 | 0.243 | 0.735 | 0.584 | 0.529 | 0.54 | 0.575
6 | NCI-H2085 | 0.491 | 0.547 | 0.522 | 0.433 | 0.392 | 0.879 | 1.06 | 0.785 | 0.833 | 0.503 | 0.435 | 0.411 | 0.444 | 0.461 | 0.343 | 0.246 | 0.246 | 0.222 | 0.239 | 0.281
7 | SW 1573 | 0.577 | 0.645 | – | 0.545 | 0.61 | 0.871 | 0.767 | 0.802 | 0.999 | 0.885 | 0.576 | 0.505 | – | 0.471 | 0.377 | 0.625 | 0.456 | 0.594 | 0.472 | 0.213
8 | NCI-H727 | 0.385 | 0.35 | 0.401 | 0.396 | 0.444 | 0.951 | 0.85 | 0.769 | 1.03 | 0.723 | 0.385 | 0.22 | 0.529 | 0.373 | 0.353 | 0.432 | 0.34 | 0.27 | 0.417 | 0.312
9 | NCI-H441 | 0.485 | 0.416 | 0.316 | 0.315 | 0.213 | 1.72 | 1.03 | 0.684 | 0.361 | 0.258 | 0.472 | 0.438 | 0.291 | 0.199 | 0.188 | 0.763 | 0.544 | 0.575 | 0.651 | 0.671
10 | LOU-NH91 | 0.773 | 0.814 | 0.718 | 0.843 | 0.65 | 0.95 | 0.888 | 0.866 | 0.947 | 0.567 | 0.52 | 0.471 | 0.498 | 0.505 | 0.451 | 0.582 | 0.527 | 0.516 | 0.595 | 0.458
11 | NCI-H3122 | 0.268 | 0.294 | 0.22 | 0.283 | 0.251 | 1.02 | 0.939 | – | 1.02 | 0.969 | 0.669 | 0.575 | 0.575 | 0.613 | 0.593 | 0.845 | 0.744 | 0.834 | 0.955 | 0.92
12 | NCI-H460 | 0.24 | 0.182 | 0.0901 | 0.196 | 0.0781 | 1.08 | 0.948 | 0.689 | 0.463 | 0.0513 | 0.424 | 0.316 | 0.212 | 0.243 | 0.166 | 0.594 | 0.377 | 0.528 | 0.507 | 0.242
13 | NCI-H650 | 0.895 | 0.97 | 0.826 | 0.471 | 0.262 | 1.02 | 0.934 | 0.824 | 0.447 | 0.258 | 0.886 | 0.868 | 0.445 | 0.374 | 0.27 | 0.454 | 0.419 | 0.431 | 0.403 | 0.35
